According to ChEMBL document CHEMBL3817792, “Targeting the Motion of Shikimate Kinase: Development of Competitive Inhibitors that Stabilize an Inactive Open Conformation of the Enzyme” (J Med Chem, 2016):

Experiments:
[1] = Inhibition of Mycobacterium tuberculosis shikimate kinase
Shikimate kinase = Shikimate kinase (Helicobacter pylori (strain ATCC 700392 / 26695) (Campylobacterpylori), UniProt P56073); experiment: Inhibition of Helicobacter pylori shikimate kinase using shikimic acid substrate by measuring oxidation of NADH to NAD by pyruvate kinase and lactate dehydrogenase coupled enzyme assay based Dixon plot analysis
Shikimate kinase, sequence (P56073 whole entry): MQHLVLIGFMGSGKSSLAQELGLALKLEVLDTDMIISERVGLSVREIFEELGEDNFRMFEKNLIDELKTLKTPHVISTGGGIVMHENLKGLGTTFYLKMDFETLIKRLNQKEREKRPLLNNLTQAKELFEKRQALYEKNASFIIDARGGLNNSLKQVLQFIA

[2] = Inhibition of Mycobacterium tuberculosis shikimate kinase using shikimic acid substrate by measuring oxidation of NADH to NAD by pyruvate kinase and lactate dehydrogenase coupled enzyme assay based Dixon plot analysis
Helicobacter pylori = experiment: Antimicrobial activity against Helicobacter pylori clinical isolates assessed as inhibition of visible microbial growth incubated for 6 days by agar dilution method; assay type: functional; conditions: 144 h

SMILES | Ki [1] | Ki (Shikimate kinase) | Ki [2] | MIC (Helicobacter pylori)
N[C@H]1C=C(C(=O)O)C[C@@H](O)[C@@H]1O | 65 µM |  |  | 
N[C@H]1C=C(C(=O)O)C[C@@H](OCc2ccc3ccccc3c2)[C@@H]1O |  | > 800 µM | > 2000 µM | 
Cc1ccc(CO[C@@H]2CC(C(=O)O)=C[C@@H](O)[C@H]2O)cc1 |  | 10.9 µM | 166 µM | 
COC(=O)C1=C[C@@H](O)[C@H](O)[C@H](OCc2cccc([N+](=O)[O-])c2)C1 |  |  |  | 128 µg/mL
O=C(O)C1=C[C@@H](O)[C@@H](O)[C@H](OCc2cccc([N+](=O)[O-])c2)C1 |  | 0.46 µM | 10 µM | 
COc1cccc(CO[C@@H]2CC(C(=O)O)=C[C@@H](O)[C@H]2O)c1 |  | 1 µM | 135 µM | 
COC(=O)C1=C[C@@H](O)[C@@H](O)[C@H](n2cc(Cc3ccccc3)nn2)C1 |  |  |  | 256 µg/mL
COC(=O)C1=C[C@@H](O)[C@@H](O)[C@H](OCc2ccc3sccc3c2)C1 |  |  |  | 4 µg/mL
O=C(O)C1=C[C@@H](O)[C@@H](O)[C@H](n2cc(COc3ccccc3)nn2)C1 |  | 67 µM | > 2000 µM | 
Cc1cccc(CO[C@@H]2CC(C(=O)O)=C[C@@H](O)[C@H]2O)c1 |  | 2.1 µM | 109 µM | 
O=C(O)C1=C[C@@H](O)[C@@H](O)[C@H](OCc2ccccc2)C1 |  | 3 µM | 360 µM | 
O=C(O)C1=C[C@@H](O)[C@@H](O)[C@H](OCc2ccc3sccc3c2)C1 |  | 0.56 µM | 43 µM | 
COC(=O)C1=C[C@H](N)[C@@H](O)[C@H](OCc2ccc3ccccc3c2)C1 |  |  |  | 64 µg/mL
O=C(O)C1=C[C@@H](O)[C@@H](O)[C@H](OCc2c(F)c(F)c(F)c(F)c2F)C1 |  | 41 µM | 710 µM | 
N[C@H]1C=C(C(=O)O)C[C@@H](OCc2ccc3sccc3c2)[C@@H]1O |  | 535 µM | 415 µM | 
COC(=O)C1=C[C@H](N)[C@@H](O)[C@H](OCc2ccc3sccc3c2)C1 |  |  |  | 256 µg/mL
COC(=O)C1=C[C@@H](O)[C@@H](O)[C@H](n2cc(COc3ccccc3)nn2)C1 |  |  |  | 128 µg/mL
O=C(O)C1=C[C@@H](O)[C@@H](O)[C@H](OCc2cccc(F)c2)C1 |  | 1.28 µM | 180 µM | 
O=C(O)C1=C[C@@H](O)[C@@H](O)[C@H](OCc2ccc3ccccc3c2)C1 |  | 1.8 µM | 22 µM | 
O=C(O)C1=C[C@@H](O)[C@@H](O)[C@H](n2cc(Cc3ccccc3)nn2)C1 |  | 95 µM | > 2000 µM | 
CC1(C)S[C@@H]2[C@H](NC(=O)[C@H](N)c3ccccc3)C(=O)N2[C@H]1C(=O)O [AMPICILLIN] |  |  |  | 1 µg/mL
